Reference: ChEMBL document CHEMBL5550204, “Discovery of ZJCK-6-46: A Potent, Selective, and Orally Available Dual-Specificity Tyrosine Phosphorylation-Regulated Kinase 1A Inhibitor for the Treatment of Alzheimer's Disease” (J Med Chem, 2024)
Active and inactive are the calls of the source. The calls are words filed in the database; no cut-off is given here.

Tests used:
Mus musculus [1] = experiment: Antialzheimer activity in okadaic acid-induced cognitive impairment C57BL/6 mouse assessed as downregulation of Tau phosphorylation at Thr212 residue in hippocampus at 10 to 30 mg/kg,po once daily for 2 weeks by ELISA; format: functional, organism-based; conditions: dose 10-30 mg/kg
[2] = Oral bioavailability in Sprague-Dawley rat at 10 mg/kg measured upto 24 hrs by LC-MS/MS analysis; format: ADME, organism-based; conditions: in vivo
[3] = Plasma protein binding in human assessed as bound fraction at 1 uM incubated for 5 hrs by LC-MS/MS analysis; format: ADME, cell-free; conditions: read-out: PPB (converted)
[4] = Metabolic stability in human plasma assessed as half life at 2 uM incubated upto 60 mins […] by LC-MS/MS analysis; format: ADME, cell-free
[5] = Drug concentration in Sprague-Dawley rat plasma at 10 mg/kg,po measured after 6 hrs by LC-MS/MS analysis; format: ADME, organism-based
[6] = MRT (0 to t) in Sprague-Dawley rat at 2 mg/kg,iv measured upto 24 hrs by LC-MS/MS analysis; format: ADME, organism-based; conditions: in vivo
[7] = target: T1, Dual specificity tyrosine-phosphorylation-regulated kinase 1B (Homo sapiens, UniProt Q9Y463); experiment: Inhibition of DYRK1B (unknown origin) at 1 uM preincubated with enzyme for 10 mins followed by substrate and ATP addition measured after 60 mins by ADP-Glo reagent based assay relative to control; conditions: time 70.0 min
Target sequence in this assay (Q9Y463 whole entry, looked up): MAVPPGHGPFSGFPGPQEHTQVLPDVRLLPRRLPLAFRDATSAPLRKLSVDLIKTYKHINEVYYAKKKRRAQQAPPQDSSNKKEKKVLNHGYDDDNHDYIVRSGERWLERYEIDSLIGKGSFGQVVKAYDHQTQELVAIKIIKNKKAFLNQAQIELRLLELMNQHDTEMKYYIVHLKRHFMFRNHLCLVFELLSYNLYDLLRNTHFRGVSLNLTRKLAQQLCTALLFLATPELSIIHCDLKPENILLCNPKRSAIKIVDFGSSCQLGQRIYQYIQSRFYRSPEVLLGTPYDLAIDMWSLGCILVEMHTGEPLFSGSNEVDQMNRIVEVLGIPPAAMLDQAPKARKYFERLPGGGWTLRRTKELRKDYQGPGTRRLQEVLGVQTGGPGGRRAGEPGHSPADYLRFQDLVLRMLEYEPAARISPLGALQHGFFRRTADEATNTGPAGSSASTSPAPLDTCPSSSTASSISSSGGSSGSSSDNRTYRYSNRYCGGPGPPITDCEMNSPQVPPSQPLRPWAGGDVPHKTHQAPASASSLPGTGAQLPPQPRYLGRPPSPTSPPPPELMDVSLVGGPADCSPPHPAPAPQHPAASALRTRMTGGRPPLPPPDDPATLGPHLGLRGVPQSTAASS

Mus musculus [8] = experiment: Antialzheimer activity in okadaic acid-induced cognitive impairment C57BL/6 mouse assessed as downregulation of Tau phosphorylation at Thr212 residue in hippocampal CA1 region at 10 to 30 mg/kg,po once daily for 2 weeks by immunohistochemical staining analysis; format: functional, organism-based; conditions: dose 10-30 mg/kg
HEK-293T = experiment: Cytotoxicity against human HEK293T cells expressing human Tau P301L mutant at 20 uM incubated for 24 hrs by MTT assay; format: toxicity, cell-based
[9] = Acute toxicity in C57BL/6 mouse assessed as change in liver weight at 500 mg/kg,po observed after 14 days; format: organism-based; conditions: in vivo, 336 h, time 14 day
[10] = Drug concentration in Sprague-Dawley rat brain at 10 mg/kg,po measured after 1 hr by LC-MS/MS analysis; format: ADME, organism-based; conditions: read-out: Ct
CYP2E1 = CYP2E1 (Homo sapiens, UniProt P05181); experiment: Inhibition of CYP2E1 in human liver microsomes using chlorzoxazone as substrate at 10 uM preincubated for 10 mins followed by NADPH addition and measured after 40 mins by LC-MS/MS analysis relative to control; conditions: probe chlorzoxazone
Sequence of CYP2E1 (P05181 whole entry): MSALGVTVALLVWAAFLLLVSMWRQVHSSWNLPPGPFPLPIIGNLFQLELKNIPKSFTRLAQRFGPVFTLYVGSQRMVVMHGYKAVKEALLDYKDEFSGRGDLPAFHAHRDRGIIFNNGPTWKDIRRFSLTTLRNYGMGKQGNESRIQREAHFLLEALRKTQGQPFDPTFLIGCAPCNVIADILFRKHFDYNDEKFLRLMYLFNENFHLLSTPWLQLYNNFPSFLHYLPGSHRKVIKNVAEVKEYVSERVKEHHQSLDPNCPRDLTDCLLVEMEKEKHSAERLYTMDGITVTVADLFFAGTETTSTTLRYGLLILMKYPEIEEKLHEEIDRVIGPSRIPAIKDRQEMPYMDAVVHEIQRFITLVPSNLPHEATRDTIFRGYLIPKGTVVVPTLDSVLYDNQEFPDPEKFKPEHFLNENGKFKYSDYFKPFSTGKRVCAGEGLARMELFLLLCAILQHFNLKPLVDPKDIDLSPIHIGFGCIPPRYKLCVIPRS

[11] = target: Dual specificity tyrosine-phosphorylation-regulated kinase 4 (Homo sapiens) (UniProt Q9NR20); experiment: Inhibition of DYRK4 (unknown origin) at 1 uM preincubated with enzyme for 10 mins followed by substrate and ATP addition measured after 60 mins by ADP-Glo reagent based assay relative to control; conditions: time 70.0 min
Sequence of Dual specificity tyrosine-phosphorylation-regulated kinase 4 (Homo sapiens) (Q9NR20 whole entry): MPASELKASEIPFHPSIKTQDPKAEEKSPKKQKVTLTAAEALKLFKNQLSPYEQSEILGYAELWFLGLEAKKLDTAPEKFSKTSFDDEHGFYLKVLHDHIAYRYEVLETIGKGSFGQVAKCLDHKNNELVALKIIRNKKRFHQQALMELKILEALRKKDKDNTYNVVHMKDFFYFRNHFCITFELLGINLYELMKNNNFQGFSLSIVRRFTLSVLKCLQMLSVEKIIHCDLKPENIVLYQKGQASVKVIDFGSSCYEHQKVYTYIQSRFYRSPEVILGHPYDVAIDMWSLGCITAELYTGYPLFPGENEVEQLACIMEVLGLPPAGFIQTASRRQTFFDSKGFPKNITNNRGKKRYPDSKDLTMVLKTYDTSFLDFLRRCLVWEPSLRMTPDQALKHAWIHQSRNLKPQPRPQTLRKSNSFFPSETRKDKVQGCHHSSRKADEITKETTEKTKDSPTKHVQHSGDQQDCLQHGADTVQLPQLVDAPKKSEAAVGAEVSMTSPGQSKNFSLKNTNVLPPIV

[12] = target: Glycogen synthase kinase-3 beta (Homo sapiens, UniProt P49841); experiment: Inhibition of GSK-3beta (unknown origin) preincubated with enzyme for 10 mins followed by substrate and ATP addition measured after 60 mins by ADP-Glo reagent based assay
Sequence of Glycogen synthase kinase-3 beta (P49841 whole entry): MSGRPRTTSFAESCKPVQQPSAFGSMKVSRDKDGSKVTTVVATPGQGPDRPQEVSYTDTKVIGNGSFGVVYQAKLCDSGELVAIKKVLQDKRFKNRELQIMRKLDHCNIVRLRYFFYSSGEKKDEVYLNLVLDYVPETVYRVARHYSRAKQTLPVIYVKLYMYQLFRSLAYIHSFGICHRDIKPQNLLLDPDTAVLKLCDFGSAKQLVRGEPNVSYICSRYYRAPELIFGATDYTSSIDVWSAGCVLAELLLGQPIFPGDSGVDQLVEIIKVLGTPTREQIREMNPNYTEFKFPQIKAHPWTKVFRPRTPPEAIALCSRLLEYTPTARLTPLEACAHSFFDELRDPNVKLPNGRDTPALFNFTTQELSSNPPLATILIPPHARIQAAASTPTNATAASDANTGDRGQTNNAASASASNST

[13] = Acute toxicity in C57BL/6 mouse assessed as histopathological change in lung at 500 mg/kg,po observed after 14 days by hematoxylin-eosin staining based analysis; format: organism-based; conditions: in vivo, 336 h, time 14 day
[14] = Apparent permeability across apical to basolateral side in dog MDCK-MDR1 cells at 5 uM incubated for 90 mins by LC-MS/MS analysis; format: ADME, cell-based, Canis lupus familiaris
[15] = target: Dual specificity protein kinase CLK1 (Homo sapiens, UniProt P49759); experiment: Inhibition of CLK1 (unknown origin) at 1 uM preincubated with enzyme for 10 mins followed by substrate and ATP addition measured after 60 mins by ADP-Glo reagent based assay relative to control; conditions: time 70.0 min
Sequence of Dual specificity protein kinase CLK1 (P49759 whole entry, looked up): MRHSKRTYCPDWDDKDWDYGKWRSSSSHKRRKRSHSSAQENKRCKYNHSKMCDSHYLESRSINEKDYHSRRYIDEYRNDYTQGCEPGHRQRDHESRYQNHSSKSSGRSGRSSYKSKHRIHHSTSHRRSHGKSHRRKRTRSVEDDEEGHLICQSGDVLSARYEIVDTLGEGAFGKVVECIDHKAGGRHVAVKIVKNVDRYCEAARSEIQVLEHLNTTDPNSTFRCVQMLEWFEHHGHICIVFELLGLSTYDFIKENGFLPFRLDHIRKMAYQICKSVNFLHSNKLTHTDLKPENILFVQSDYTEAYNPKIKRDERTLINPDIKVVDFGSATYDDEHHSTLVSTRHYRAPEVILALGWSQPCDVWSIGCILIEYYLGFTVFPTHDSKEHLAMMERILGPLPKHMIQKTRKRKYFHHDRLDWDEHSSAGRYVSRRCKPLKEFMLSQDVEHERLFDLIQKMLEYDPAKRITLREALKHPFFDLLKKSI

Mus musculus [16] = experiment: Antialzheimer activity in okadaic acid-induced cognitive impairment C57BL/6 mouse assessed as downregulation of Tau phosphorylation at Thr212 residue in hippocampal DG region at 10 to 30 mg/kg,po once daily for 2 weeks by immunohistochemical staining analysis; format: functional, organism-based; conditions: dose 10-30 mg/kg
[17] = target: T1, Dual specificity tyrosine-phosphorylation-regulated kinase 1B; experiment: Inhibition of DYRK1B (unknown origin) preincubated with enzyme for 10 mins followed by substrate and ATP addition measured after 60 mins by ADP-Glo reagent based assay
Target sequence in this assay (Q9Y463 whole entry): as the sequence (Q9Y463 whole entry, looked up) above

Mus musculus [18] = experiment: Antialzheimer activity in okadaic acid-induced cognitive impairment C57BL/6 mouse assessed as decrease in escape latency at 10 to 30 mg/kg,po once daily for 2 weeks by Morris water maze test; format: functional, organism-based; conditions: dose 10-30 mg/kg
[19] = Drug concentration in Sprague-Dawley rat plasma at 10 mg/kg,po measured after 1 hr by LC-MS/MS analysis; format: ADME, organism-based
Mus musculus [20] = experiment: Antialzheimer activity in okadaic acid-induced cognitive impairment C57BL/6 mouse assessed as reduction in nerve damage in hippocampal CA1 region at 10 to 30 mg/kg,po once daily for 2 weeks by Nissl staining based microscopy; format: functional, organism-based; conditions: dose 10-30 mg/kg
[21] = target: Dual specificity tyrosine-phosphorylation-regulated kinase 2 (Homo sapiens, UniProt Q92630); experiment: Inhibition of DYRK2 (unknown origin) preincubated with enzyme for 10 mins followed by substrate and ATP addition measured after 60 mins by ADP-Glo reagent based assay
Sequence of Dual specificity tyrosine-phosphorylation-regulated kinase 2 (Q92630 whole entry): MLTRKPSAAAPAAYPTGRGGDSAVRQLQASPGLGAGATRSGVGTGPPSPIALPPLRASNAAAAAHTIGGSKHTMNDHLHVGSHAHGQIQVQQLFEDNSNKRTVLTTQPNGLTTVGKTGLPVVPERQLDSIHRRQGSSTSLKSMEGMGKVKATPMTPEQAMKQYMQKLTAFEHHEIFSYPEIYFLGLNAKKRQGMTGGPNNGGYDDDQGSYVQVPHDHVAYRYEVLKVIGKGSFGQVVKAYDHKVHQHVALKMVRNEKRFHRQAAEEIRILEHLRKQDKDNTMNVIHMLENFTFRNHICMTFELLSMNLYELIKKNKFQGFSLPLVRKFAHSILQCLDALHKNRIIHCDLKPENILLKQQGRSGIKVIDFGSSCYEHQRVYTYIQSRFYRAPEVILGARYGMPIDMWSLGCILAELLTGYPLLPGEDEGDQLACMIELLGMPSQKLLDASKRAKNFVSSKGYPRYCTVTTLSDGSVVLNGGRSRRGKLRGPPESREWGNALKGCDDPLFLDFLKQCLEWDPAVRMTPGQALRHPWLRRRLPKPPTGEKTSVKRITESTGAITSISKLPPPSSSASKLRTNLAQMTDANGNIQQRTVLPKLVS

CYP2C19 = CYP2C19 (Homo sapiens, UniProt P33261); experiment: Inhibition of CYP2C19 in human liver microsomes using mephenytoin as substrate at 10 uM preincubated for 10 mins followed by NADPH addition and measured after 40 mins by LC-MS/MS analysis relative to control; format: ADME, Microsome; conditions: probe mephenytoin, time 50 min
Sequence of CYP2C19 (P33261 whole entry): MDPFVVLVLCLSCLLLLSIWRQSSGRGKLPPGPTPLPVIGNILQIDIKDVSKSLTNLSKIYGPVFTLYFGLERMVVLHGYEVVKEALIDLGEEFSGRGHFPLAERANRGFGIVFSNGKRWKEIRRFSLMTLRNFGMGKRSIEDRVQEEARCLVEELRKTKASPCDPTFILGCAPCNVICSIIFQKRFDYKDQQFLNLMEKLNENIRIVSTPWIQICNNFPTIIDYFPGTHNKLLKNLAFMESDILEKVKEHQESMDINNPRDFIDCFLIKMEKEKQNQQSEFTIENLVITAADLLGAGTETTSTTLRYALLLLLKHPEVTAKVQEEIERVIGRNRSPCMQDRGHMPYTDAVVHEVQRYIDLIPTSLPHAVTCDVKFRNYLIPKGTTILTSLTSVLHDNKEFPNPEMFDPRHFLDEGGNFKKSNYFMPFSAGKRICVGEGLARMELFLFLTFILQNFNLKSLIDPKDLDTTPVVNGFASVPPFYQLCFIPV

Mus musculus [22] = experiment: Antialzheimer activity in okadaic acid-induced cognitive impairment C57BL/6 mouse assessed as decrease in memory deficit at 10 to 30 mg/kg,po once daily for 2 weeks by Morris water maze test; format: functional, organism-based; conditions: dose 10-30 mg/kg
[23] = Drug concentration in Sprague-Dawley rat plasma at 10 mg/kg,po measured after 4 hrs by LC-MS/MS analysis; format: ADME, organism-based
[24] = Cmax in Sprague-Dawley rat at 2 mg/kg,iv measured upto 24 hrs by LC-MS/MS analysis; format: ADME, organism-based; conditions: in vivo
[25] = Acute toxicity in C57BL/6 mouse assessed as histopathological change in liver at 500 mg/kg,po observed after 14 days by hematoxylin-eosin staining based analysis; format: organism-based; conditions: in vivo, 336 h, time 14 day
CYP2D6 = CYP2D6 (Homo sapiens, UniProt P10635); experiment: Inhibition of CYP2D6 in human liver microsomes using dextromethorphan as substrate at 10 uM preincubated for 10 mins followed by NADPH addition and measured after 40 mins by LC-MS/MS analysis relative to control; format: ADME, Microsome; conditions: probe dextromethorphan, time 50 min
Sequence of CYP2D6 (P10635 whole entry): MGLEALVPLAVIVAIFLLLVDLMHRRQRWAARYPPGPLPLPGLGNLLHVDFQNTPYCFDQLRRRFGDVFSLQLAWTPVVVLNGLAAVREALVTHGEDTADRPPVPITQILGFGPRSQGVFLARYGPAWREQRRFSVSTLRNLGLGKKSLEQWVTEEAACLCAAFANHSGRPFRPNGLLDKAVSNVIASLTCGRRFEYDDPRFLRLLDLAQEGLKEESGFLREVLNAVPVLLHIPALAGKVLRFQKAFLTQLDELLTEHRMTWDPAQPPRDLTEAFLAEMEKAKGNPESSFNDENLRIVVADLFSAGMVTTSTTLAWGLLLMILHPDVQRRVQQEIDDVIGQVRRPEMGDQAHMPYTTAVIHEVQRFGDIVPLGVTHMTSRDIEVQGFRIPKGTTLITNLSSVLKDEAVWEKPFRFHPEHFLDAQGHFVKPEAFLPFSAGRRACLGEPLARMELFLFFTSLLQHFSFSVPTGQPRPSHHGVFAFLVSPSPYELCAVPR

SH-SY5Y = experiment: Cytotoxicity against human SH-SY5Y cells expressing human Tau P301L mutant at 20 uM incubated for 24 hrs by MTT assay; format: functional, cell-based
Mus musculus [26] = experiment: Antialzheimer activity in okadaic acid-induced cognitive impairment C57BL/6 mouse assessed as increase in cognitive function at 10 to 30 mg/kg,po measured after 7 days by Morris water maze test; format: functional, organism-based; conditions: dose 10-30 mg/kg, time 7.0 day
[27] = MRT (0 to infinity) in Sprague-Dawley rat at 10 mg/kg,po measured upto 24 hrs by LC-MS/MS analysis; format: ADME, organism-based; conditions: in vivo

Question: Which Activity (Mus musculus [1]) does the source give for `Cc1ccc2c(-c3ccc4ncnc(N[C@H](CO)c5ccccc5)c4c3)c[nH]c2n1` here?
Answer: Active

Question: And the bioavailability [2]?
Answer: 39.7%

Question: And the fraction unbound at 5 h, 1 µM [3]?
Answer: 0.0033

Question: What about the half-life at 2 µM [4] of the same compound?
Answer: > 200 min

Question: What about the concentration at 6 h [5] of the same compound?
Answer: 118 ng/mL

Question: And the MRT last at 24 h [6]?
Answer: 3.81 h

Question: And the inhibition [7]?
Answer: 100%

Question: What about the Activity (Mus musculus [8]) of the same compound?
Answer: Active

Question: What about the Activity (HEK-293T) of the same compound?
Answer: Toxic

Question: What about the Activity [9] of the same compound?
Answer: Non-Toxic

Question: And the concentration at 1 h [10]?
Answer: 26.9 ng/g

Question: What about the inhibition at 40 min, 10 µM (CYP2E1) of the same compound?
Answer: 0.07%

Question: And the inhibition [11]?
Answer: 102%

Question: And the IC50 [12]?
Answer: 1420 nM

Question: What about the Activity [13] of the same compound?
Answer: Non-Toxic

Question: What about the Papp A→B at […], 5 µM [14] of the same compound?
Answer: 2.67 ×10⁻⁶ cm/s

Question: And the inhibition [15]?
Answer: 99.5%

Question: And the Activity (Mus musculus [16])?
Answer: Active

Question: And the IC50 [17]?
Answer: 1.02 nM

Question: What about the Activity (Mus musculus [18]) of the same compound?
Answer: Active

Question: And the concentration at 1 h [19]?
Answer: 353 ng/mL

Question: And the Activity (Mus musculus [20])?
Answer: Active

Question: And the IC50 [21]?
Answer: 14.2 nM

Question: And the inhibition at 40 min, 10 µM (CYP2C19)?
Answer: 96.9%

Question: And the Activity (Mus musculus [22])?
Answer: Active

Question: And the concentration at 4 h [23]?
Answer: 254 ng/mL

Question: What about the Cmax [24] of the same compound?
Answer: 272 ng/mL

Question: What about the Activity [25] of the same compound?
Answer: Non-Toxic

Question: What about the inhibition at 40 min, 10 µM (CYP2D6) of the same compound?
Answer: 65.8%

Question: What about the Activity (SH-SY5Y) of the same compound?
Answer: Active

Question: What about the Activity (Mus musculus [26]) of the same compound?
Answer: Active

Question: What about the MRT inf [27] of the same compound?
Answer: 5.98 h
